In patent EP3892734B1, “SCREENING METHODS AND THERAPEUTIC APPLICATIONS BASED ON BACTERIAL MOTILITY INHIBITION” (Ludwig-Maximilians-Universität München, priority 2020, dated 2021):
“Also recorded” adds a separate entry of the source.

Columns and labels:
H. pylori N6 [1] = test: MIC/MBC determination in broth culture; type: cell-based, Helicobacter pylori; conditions: for classical antibacterial activity (growth / metabolic inhibition) against H. pylori: result in words
Protocol: In order to distinguish compounds having anti-flagellar activity from compounds having classical antibiotic effects (i.e., bacteriostatic and/or bactericidal effects), the test compounds were additionally subjected to MIC/MBC testing. Helicobacter pylori were grown in liquid culture by harvesting bacteria from overnight-grown plates into brain-heart infusion medium (BHI, Oxoid) with 3% yeast extract and 5% horse serum, added to an initial inoculum of OD600 = 0.05. 10 ml of this bacterial suspension were incubated as a preculture in a 50 ml Falcon tube with lid ajar inside of an air-tight incubation jar and a microaerobic atmosphere generated by Merck Anaerocult C gas generating packs at 37°C and shaking with 175 rpm overnight. On the following day, prior to the beginning of the experiment, the OD600 of the liquid culture was routinely below 1, in mid-exponential growth phase.
Next, 200 µl of the bacterial suspension were added per well of a 24-well-plate (Greiner Cellstar #662160) diluted to an initial OD600 of 0.07. Compounds (in DMSO) were added to the sample wells in duplicates in a serial dilution of starting at an upper limit of 256 µg/ml. Pure DMSO was added to all wells for a concentration of 2% DMSO per well. The multiwell plate (with lid) was incubated inside of an incubation jar and a microaerobic atmosphere generated by Merck Anaerocult C sachets at 37°C and shaking with 175 rpm for 24 h. For measurement, the duplicates were pooled after visual inspection, diluted 1:3 in medium and measured in plastic cuvettes as an OD at 600 nm. The detection limit of growth was defined as an OD600 of 0.05. […] This MIC determination method can also be downscaled, further automated and measured in 96- or 384-well plates in a micro-well plate incubator equipped with a gas chamber for microaerobic bacterial incubation.
For evaluation of the "minimum bactericidal concentration" (MBC), bacteria from the MIC experiment were streaked and plated at different serial dilutions on blood agar, including the lowest compound concentration where bacterial growth was still measurable by OD600 (OD600 ≥ 0.05), and three compound concentration levels above (if possible). The blood agar plates were incubated at 37°C in an […], either inside an incubation jar (Oxoid) with an Anaerocult C gas pack (Merck), or in an anaerobic cabinet aerated with a microaerobic gas mix as outlined above (Scholzen).
For evaluation of the MBC, bacteria from the MIC experiment were plated as streaks or in appropriate dilutions on Columbia blood agar plates, using inoculation loops. The plates were incubated at 37°C overnight to detect growth.

H. pylori N6 [2] = test: vitality / metabolic (respiratory inhibition) counter-screen; type: cell-based, Helicobacter pylori; conditions: > 100% indicates no inhibition
[3] = minimal toxic dose (MTD) testing in mice; type: in vivo; conditions: oral, up to 60 mg/kg/day, listed as BL2
Protocol: The active compounds BL1 and BL2, which were chosen to be tested in a preclinical model, were initially tested for toxicity in the mouse model by […] (MTD) testing. The MTD testing (MTD Tox56000 protocol, Eurofins Panlabs) was performed according to international standards, as will be briefly outlined in the following: Three mice were dosed with the compounds at each intended dose. BL1 active compound was prepared in a suitable stock concentration in 5% DMSO, or 5% DMSO, 10% Solutol, 85% PBS (for the 40 and 60 mg/kg/day), and dosed at 10, 30, 40, or 60 mg/kg/day by intraperitoneal injection (125 µl for each dose). BL2 active compound was dosed orally, at 10 mg/kg/day, 30 mg/kg/day, or 60 mg/kg/day, diluted in 5% DMSO, 2.5% carboxy-methyl-cellulose (CMC), in PBS, also at 125 µl per dose per animal. The dosing in each case started with the lowest dose in the three animals, followed by observation for up to 72 h. Subsequently, the next higher dose was administered to a different set of three mice, etc.. Both compounds to be used subsequently for the in vivo therapeutic administration were verified to be non-toxic to mice below an administered dose of 40 mg/kg per day.

[4] = plasma cytokine analysis by Bioplex multiplex bead assay in treated mice; type: in vivo, C57B/L6 mice; conditions: chronic mouse infection model, BioRad Bioplex assay
Protocol: Before the infection and at the end of the treatment experiment, mouse blood was taken from the eye vein of a few selected mice (approximately 30 to 100 µl per mouse). The blood plasma was subsequently separated from cells using separation centrifugation devices (Sarstedt Microvette lithium-heparin). Plasma was diluted in Biorad Bioplex assay buffer to one fourth of the initial concentration and measured in the 23-Plex BioPlex bead-based multiplex cytokine assay (Biorad #m60009rdpd) according to the manufacturer's instructions and using the provided standards. Each sample was measured in a total volume of 50 µl in duplicate.

SMILES: Cn1c(CSC(=N)N)c(Cl)c(=O)n1-c1ccccc1 [Active 2]
- MIC/MBC (H. pylori N6 [1]; H. pylori): > 256 µg/mL
- MIC (H. pylori N6 [1]; Helicobacter pylori, N6): > 256 µg/mL
- classical antibacterial activity (growth / metabolic inhibition) against H. pylori (H. pylori N6 [1]): did not inhibit growth or metabolic activity of H. pylori
- classical antibacterial activity (growth / metabolic inhibition) against H. pylori (H. pylori N6 [1]; listed as BL2): not active against H. pylori in a classical antibacterial (antibiotic) manner
- Metabolic assay (% of control) (H. pylori N6 [2]): 102,2 % of control
- toxicity (MTD testing) [3]: did not show any toxicity; also recorded: not toxic
- plasma cytokine loads [4]: No significant change of plasma cytokine loads
